Reference: the NIST ThermoML archive (doi:10.1016/j.jct.2018.02.013)

Experiments:
[1] = molar heat capacity at constant pressure; wn = mass fraction of the nth substance listed; settings: 101 kPa, Liquid, Small sample (50 mg) DSC
[2] = wn = mass fraction of the nth substance listed; settings: 101 kPa, Liquid; for mass density: Vibrating tube method; for viscosity: Cone and plate viscometry; for thermal conductivity: transient hot wire; for electrical conductivity: Direct current cell with electrodes

CCCCCCCCCC(=O)[O-].CCCCCCCCCCCCCC[P+](CCCCCC)(CCCCCC)CCCCCC [trihexyltetradecylphosphonium decanoate] + O
w2 = 0.1415
Settings | electrical conductivity [S/m] | mass density [kg/m3] | molar heat capacity at constant pressure [J/K/mol] | thermal conductivity [W/m/K] | viscosity [mPa·s]
[1], 298.15 K | – | – | 313.81 | – | –
[1], 303.15 K | – | – | 319.48 | – | –
[1], 308.15 K | – | – | 323.73 | – | –
[1], 313.15 K | – | – | 326.79 | – | –
[1], 318.15 K | – | – | 328.54 | – | –
[1], 323.15 K | – | – | 332.14 | – | –
[1], 328.15 K | – | – | 335.3 | – | –
[1], 333.15 K | – | – | 338.57 | – | –
[1], 338.15 K | – | – | 341.41 | – | –
[1], 343.15 K | – | – | 344.47 | – | –
[1], 348.15 K | – | – | 348.72 | – | –
[1], 353.15 K | – | – | 351.99 | – | –
[1], 358.15 K | – | – | 355.6 | – | –
[1], 363.15 K | – | – | 360.72 | – | –
[2], 298.15 K | – | 899.1 | – | – | –
[2], 298.2 K | – | – | – | – | 91.87
[2], 298.55 K | – | – | – | 0.1861 | –
[2], 299.2 K | 0.03 | – | – | – | –
[2], 303.15 K | – | 895.8 | – | – | –
[2], 303.2 K | – | – | – | – | 76.66
[2], 303.6 K | 0.0369 | – | – | – | –
[2], 307.51 K | – | – | – | 0.1849 | –
[2], 308.2 K | – | – | – | – | 64.23
[2], 308.8 K | 0.0436 | – | – | – | –
[2], 313.15 K | – | 889 | – | – | –
[2], 313.2 K | 0.0524 | – | – | – | 53.34
[2], 317.84 K | – | – | – | 0.1829 | –
[2], 318.2 K | – | – | – | – | 45
[2], 318.8 K | 0.0639 | – | – | – | –
[2], 323.15 K | – | 882.3 | – | – | –
[2], 323.2 K | – | – | – | – | 37.98
[2], 323.6 K | 0.0733 | – | – | – | –
[2], 328.2 K | – | – | – | – | 32.86
[2], 328.68 K | – | – | – | 0.1809 | –
[2], 328.8 K | 0.0865 | – | – | – | –
[2], 333.15 K | – | 875.4 | – | – | –
[2], 333.2 K | 0.1 | – | – | – | 28.28
[2], 337.66 K | – | – | – | 0.1799 | –
[2], 338.2 K | – | – | – | – | 24.62
[2], 338.8 K | 0.118 | – | – | – | –
[2], 343.15 K | – | 868.2 | – | – | –
[2], 343.2 K | – | – | – | – | 21.4
[2], 343.8 K | 0.132 | – | – | – | –
[2], 347.13 K | – | – | – | 0.1785 | –
[2], 348.2 K | – | – | – | – | 18.91
[2], 348.9 K | 0.156 | – | – | – | –
[2], 353.15 K | – | 860.8 | – | – | –
[2], 353.2 K | – | – | – | – | 17.1
[2], 358.2 K | – | – | – | 0.1762 | 15.4
[2], 363.15 K | – | 853.7 | – | – | –
[2], 363.2 K | – | – | – | – | 13.95
[2], 368.2 K | – | – | – | – | 12.08

CCCCCCCC(=O)[O-].CCCCCCCCCCCCCC[P+](CCCCCC)(CCCCCC)CCCCCC [trihexyl(tetradecyl)phosphonium octanoate] + O
w2 = 0.1478
Settings | electrical conductivity [S/m] | mass density [kg/m3] | molar heat capacity at constant pressure [J/K/mol] | thermal conductivity [W/m/K] | viscosity [mPa·s]
[1], 298.15 K | – | – | 319.61 | – | –
[1], 303.15 K | – | – | 322.43 | – | –
[1], 308.15 K | – | – | 325.15 | – | –
[1], 313.15 K | – | – | 326.51 | – | –
[1], 318.15 K | – | – | 329.23 | – | –
[1], 323.15 K | – | – | 332.16 | – | –
[1], 328.15 K | – | – | 335.5 | – | –
[1], 333.15 K | – | – | 338.32 | – | –
[1], 338.15 K | – | – | 340.52 | – | –
[1], 343.15 K | – | – | 342.51 | – | –
[1], 348.15 K | – | – | 345.96 | – | –
[1], 353.15 K | – | – | 350.45 | – | –
[1], 358.15 K | – | – | 353.8 | – | –
[1], 363.15 K | – | – | 358.19 | – | –
[2], 298.15 K | – | 901.5 | – | – | –
[2], 298.2 K | – | – | – | – | 82.71
[2], 299 K | 0.0415 | – | – | – | –
[2], 299.13 K | – | – | – | 0.1872 | –
[2], 303.15 K | – | 898.1 | – | – | –
[2], 303.2 K | – | – | – | – | 70.08
[2], 304.4 K | 0.051 | – | – | – | –
[2], 307.9 K | – | – | – | 0.1852 | –
[2], 308.2 K | – | – | – | – | 58.36
[2], 308.8 K | 0.0603 | – | – | – | –
[2], 313.15 K | – | 891.3 | – | – | –
[2], 313.2 K | – | – | – | – | 48.63
[2], 313.6 K | 0.0724 | – | – | – | –
[2], 318.01 K | – | – | – | 0.1831 | –
[2], 318.2 K | 0.0882 | – | – | – | 41.34
[2], 323.15 K | – | 884.7 | – | – | –
[2], 323.2 K | – | – | – | – | 35.7
[2], 323.8 K | 0.101 | – | – | – | –
[2], 327.85 K | – | – | – | 0.1821 | –
[2], 328.2 K | – | – | – | – | 30.82
[2], 328.6 K | 0.119 | – | – | – | –
[2], 333.15 K | – | 877.7 | – | – | –
[2], 333.2 K | – | – | – | – | 26.32
[2], 333.4 K | 0.139 | – | – | – | –
[2], 337.66 K | – | – | – | 0.1801 | –
[2], 338.1 K | 0.164 | – | – | – | –
[2], 338.2 K | – | – | – | – | 22.53
[2], 343.15 K | – | 870.8 | – | – | –
[2], 343.2 K | – | – | – | – | 19.93
[2], 343.5 K | 0.182 | – | – | – | –
[2], 347.48 K | – | – | – | 0.1791 | –
[2], 348.2 K | – | – | – | – | 17.29
[2], 349.7 K | 0.215 | – | – | – | –
[2], 353.15 K | – | 863.8 | – | – | –
[2], 353.2 K | – | – | – | – | 15.03
[2], 358 K | – | – | – | 0.1771 | –
[2], 358.2 K | – | – | – | – | 13.44
[2], 363.15 K | – | 857.1 | – | – | –
[2], 363.2 K | – | – | – | – | 11.86
[2], 368.2 K | – | – | – | – | 10.87

CCCC(=O)[O-].CCCCCCCCCCCCCC[P+](CCCCCC)(CCCCCC)CCCCCC [trihexyl(tetradecyl)phosphonium butyrate] + O
w2 = 0.1668
Settings | electrical conductivity [S/m] | mass density [kg/m3] | molar heat capacity at constant pressure [J/K/mol] | thermal conductivity [W/m/K] | viscosity [mPa·s]
[1], 298.15 K | – | – | 316.94 | – | –
[1], 303.15 K | – | – | 319.46 | – | –
[1], 308.15 K | – | – | 321.6 | – | –
[1], 313.15 K | – | – | 324.22 | – | –
[1], 318.15 K | – | – | 327.2 | – | –
[1], 323.15 K | – | – | 330.19 | – | –
[1], 328.15 K | – | – | 333.45 | – | –
[1], 333.15 K | – | – | 336.44 | – | –
[1], 338.15 K | – | – | 340.64 | – | –
[1], 343.15 K | – | – | 344.65 | – | –
[1], 348.15 K | – | – | 348.29 | – | –
[1], 353.15 K | – | – | 351.74 | – | –
[1], 358.15 K | – | – | 356.22 | – | –
[1], 363.15 K | – | – | 360.42 | – | –
[2], 298.15 K | – | 907.8 | – | 0.189 | –
[2], 298.2 K | – | – | – | – | 61.46
[2], 302.4 K | 0.11 | – | – | – | –
[2], 303.15 K | – | 904.6 | – | – | –
[2], 303.2 K | – | – | – | – | 48.17
[2], 303.9 K | 0.118 | – | – | – | –
[2], 307.87 K | – | – | – | 0.188 | –
[2], 308.2 K | – | – | – | – | 38.54
[2], 308.4 K | 0.14 | – | – | – | –
[2], 313.15 K | – | 898.3 | – | – | –
[2], 313.2 K | 0.168 | – | – | – | 31.4
[2], 317.99 K | – | – | – | 0.1859 | –
[2], 318.2 K | – | – | – | – | 25.96
[2], 318.8 K | 0.205 | – | – | – | –
[2], 323.15 K | – | 891.9 | – | – | –
[2], 323.2 K | 0.235 | – | – | – | 21.94
[2], 327.77 K | – | – | – | 0.1848 | –
[2], 328.2 K | – | – | – | – | 18.8
[2], 328.4 K | 0.277 | – | – | – | –
[2], 333.15 K | – | 885 | – | – | –
[2], 333.2 K | – | – | – | – | 16.05
[2], 333.4 K | 0.322 | – | – | – | –
[2], 338.18 K | – | – | – | 0.1828 | –
[2], 338.2 K | – | – | – | – | 13.85
[2], 338.8 K | 0.38 | – | – | – | –
[2], 343.15 K | – | 877.8 | – | – | –
[2], 343.2 K | 0.423 | – | – | – | 11.94
[2], 347.9 K | – | – | – | 0.1818 | –
[2], 348.2 K | – | – | – | – | 10.37
[2], 349.7 K | 0.499 | – | – | – | –
[2], 353.15 K | – | 870.5 | – | – | –
[2], 353.2 K | – | – | – | – | 9.056
[2], 358.2 K | – | – | – | 0.1808 | 8.136
[2], 363.15 K | – | 863.9 | – | – | –
[2], 363.2 K | – | – | – | – | 7.26
[2], 368.2 K | – | – | – | – | 7.063
